The test deals with T1, human MCH-1R (Homo sapiens, UniProt Q99705).
T1 construct: expressed in transfected cells; host or cells: CHO-K1 (American Type Culture Collection); membrane samples
As to the kind of experiment: MCH binding inhibition test. To be noted: membranes of MCH-1R expressing CHO-K1 cells, 50 pM [125I]MCH, 25° C., one hour, pH 7.4; read-out: IC50 (50% inhibition concentration to the specific [125I]MCH binding). From the text: Pharmacological Test Example 1 (MCH Binding Inhibition Test)
A human MCH-1R encoding cDNA sequence [FEBS Letters, Vol. 398, 253 (1996); Biochimica et Biophisica Acta, Vol. 1401, 216 (1998)] was cloned to a plasmid vector pEF/myc/cyto (Invitrogen Corporation). The obtained expression vector was transfected to host cells CHO-K1 (American Type Culture Collection) using Lipofectamine Plus Reagent (Life Technology Inc.) to provide MCH-1R expression cells.
Membrane samples prepared from the MCH-1R expression cells were incubated with each test compound and 50 pM of [^125I]MCH (NEN Co.), in an assay buffer (50 mM Tris buffer comprising 10 mM magnesium chloride, 2 mM ethylenediamine tetraacetate, 0.01% bacitracin and 0.2% bovine serum albumin; pH 7.4) at 25° C. for an hour, followed by filtration through a glass filter GF/C (Wattman Co.). After washing the glass filter with 50 mM Tris buffer (pH 7.4) comprising 10 mM magnesium chloride, 2 mM ethylenediamine tetraacetate and 0.04% Tween-20, the radioactive activity on the glass filter was measured. The non-specific binding was measured in the presence of 1 μM human MCH and 50% inhibition concentration (IC50 value) of each test compound to the specific [^125I]MCH binding was determined.

T1 sequence (Q99705 whole entry): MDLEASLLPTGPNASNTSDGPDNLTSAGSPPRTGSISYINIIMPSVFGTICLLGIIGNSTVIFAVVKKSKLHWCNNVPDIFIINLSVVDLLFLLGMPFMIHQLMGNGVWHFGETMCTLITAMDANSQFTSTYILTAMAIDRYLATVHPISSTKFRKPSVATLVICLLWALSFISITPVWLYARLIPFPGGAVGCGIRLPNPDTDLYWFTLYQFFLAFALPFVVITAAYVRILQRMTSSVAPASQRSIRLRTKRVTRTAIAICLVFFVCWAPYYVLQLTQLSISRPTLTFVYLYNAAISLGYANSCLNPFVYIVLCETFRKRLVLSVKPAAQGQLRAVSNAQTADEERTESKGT

With `CCCCN(C)C/C=C/c1ccc(-n2ccc(OCc3ccc(Cl)cc3)cc2=O)cc1` [Example 6, 4-[(4-Chlorobenzyl)oxy]-1-(4-{(1E)-3-[butyl(methyl)amino]-1-propen-1-yl}phenyl)pyridin-2(1H)-one], the IC50 came out at 0.93 nM.

As for `CCN(CC)CCc1ccc(-n2ccc(OCc3ccc(Cl)cn3)cc2=O)cc1` [Example 32, 4-[(5-Chloropyridin-2-yl)methoxy]-1-{4-[2-(diethylamino)ethyl]phenyl}pyridin-2(1H)-one], the IC50 was found to be 6.2 nM.

Take `O=c1cc(OCc2ccc(F)cc2)ccn1-c1ccc(NCCN2CCCC2)cc1` [Example 14, 4-[(4-Fluorobenzyl)oxy]-1-{4-[(2-pyrrolidin-1-ylethyl)amino]phenyl}pyridin-2(1H)-one]: the IC50 is 4.5 nM.

Take `CN(C)C/C=C/c1ccc(-n2ccc(OCc3ccc(Cl)cc3)cc2=O)cc1` [Example 8, 4-[(4-Chlorobenzyl)oxy]-1-(4-[(1E)-3-(dimethylamino)-1-propen-1-yl]phenyl)pyridin-2(1H)-one]: the IC50 is 1.4 nM.

Regarding `O=c1cc(OCc2ccc(Cl)cn2)ccn1-c1ccc(CCNC2CCCC2)cc1` [Example 37, 4-[(5-Chloropyridin-2-yl)methoxy]-1-{4-[(2-cyclopentylamino)ethyl]phenyl}pyridin-2(1H)-one], the IC50 was 4.6 nM.

For `CC(C)N(C)C/C=C/c1ccc(-n2ccc(OCc3ccc(Cl)cc3)cc2=O)cc1` [Example 5, 4-[(4-Chlorobenzyl)oxy]-1-(4-{(1E)-3-[isopropyl(methyl)amino]-1-propen-1-yl]phenyl}pyridin-2(1H)-one], the IC50 worked out at 1.4 nM.

`CCCN(C)C/C=C/c1ccc(-n2ccc(OCc3ccc(Cl)cc3)cc2=O)cc1` [Example 4, 4-[(4-Chlorobenzyl)oxy]-1-(4-{(1E)-3-[propyl(methyl)amino]-1-propen-1-yl}phenyl)pyridin-2(1H)-one]: the IC50 was 1.2 nM.

Consider `CO[C@H]1CCN(CCc2ccc(-n3ccc(OCc4ccc(F)cc4)cc3=O)cc2)C1` [Example 27, 4-[(4-Fluorobenzyl)oxy]-1-(4-{2-[(3S)-3-methoxypyrrolidin-1-yl]ethyl}phenyl)pyridin-2(1H)-one], for which the IC50 amounted to 5.8 nM.

Regarding `O=c1cc(OCc2ccc(F)cc2)ccn1-c1ccc([C@H]2C[C@H](N3CCCC3)C2)cc1` [Example 53, 4-[(4-Fluorobenzyl)oxy]-1-[4-(trans-3-pyrrolidin-1-ylcyclobutyl)phenyl]pyridin-2(1H)-one], the IC50 turned out to be 3.5 nM.

Regarding `CCN(C)C/C=C/c1ccc(-n2ccc(OCc3ccc(Cl)cc3)cc2=O)cc1` [Example 3, 4-[(4-Chlorobenzyl)oxy]-1-(4-{(1E)-3-[ethyl(methyl)amino]-1-propen-1-yl}phenyl)pyridin-2(1H)-one], the IC50 worked out at 1.5 nM.

For the origin of these results see patent US7875633B2, “Phenylpyridone derivative” (Banyu Pharmaceutical Co., Ltd., priority 2005, dated 2011).
